# Assay results from patent US10174026B2, “Histone demethylase inhibitors” (CELGENE QUANTICEL RESEARCH, INC., priority 2013, dated 2019).
# Target: JMJD2C (Homo sapiens (Human), UniProt Q9H3R0)
# Assay: JMJD2C in vitro enzyme inhibition assay (TR-FRET)
# Assay type: biochemical
# Settings: not given
# Procedure: (§1) This assay determines the ability of a test compound to inhibit Jarid1A, Jarid1B, JMJD2C, and JMJD2A demethylase activity.
# Reaction product was determined quantitatively by TR-FRET after the addition of detection reagent Phycolink Streptavidin-allophycocyanin (Prozyme) and Europium-anti-di-methylated histone H3 lysine 9 (H3K9me2) antibody (PerkinElmer) in the presence of 5 mM EDTA in LANCE detection buffer (PerkinElmer) at a final concentration of 50 nM and 1 nM, respectively.
# Chain of JMJD2C (Q9H3R0 2-372): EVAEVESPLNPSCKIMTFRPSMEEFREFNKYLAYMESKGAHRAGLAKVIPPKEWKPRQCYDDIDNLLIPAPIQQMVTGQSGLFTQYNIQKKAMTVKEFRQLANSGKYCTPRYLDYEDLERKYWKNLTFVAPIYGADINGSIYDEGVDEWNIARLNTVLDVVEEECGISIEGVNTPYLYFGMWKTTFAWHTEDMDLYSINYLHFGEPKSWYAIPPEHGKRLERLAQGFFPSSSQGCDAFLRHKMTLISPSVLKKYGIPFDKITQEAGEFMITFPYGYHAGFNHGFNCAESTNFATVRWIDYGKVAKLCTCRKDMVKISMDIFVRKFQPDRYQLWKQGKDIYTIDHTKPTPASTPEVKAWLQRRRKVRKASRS
row,Compound,IC50
1,"(±)-methyl 2-(1-hydroxy-2-methylpropyl)-1H-pyrrolo[3,2-b]-pyridine-7-carboxylate [Example 30]",< 100 nM

# Target: Jarid1A (Homo sapiens (Human), UniProt P29375)
# Sequence (P29375 1-1090): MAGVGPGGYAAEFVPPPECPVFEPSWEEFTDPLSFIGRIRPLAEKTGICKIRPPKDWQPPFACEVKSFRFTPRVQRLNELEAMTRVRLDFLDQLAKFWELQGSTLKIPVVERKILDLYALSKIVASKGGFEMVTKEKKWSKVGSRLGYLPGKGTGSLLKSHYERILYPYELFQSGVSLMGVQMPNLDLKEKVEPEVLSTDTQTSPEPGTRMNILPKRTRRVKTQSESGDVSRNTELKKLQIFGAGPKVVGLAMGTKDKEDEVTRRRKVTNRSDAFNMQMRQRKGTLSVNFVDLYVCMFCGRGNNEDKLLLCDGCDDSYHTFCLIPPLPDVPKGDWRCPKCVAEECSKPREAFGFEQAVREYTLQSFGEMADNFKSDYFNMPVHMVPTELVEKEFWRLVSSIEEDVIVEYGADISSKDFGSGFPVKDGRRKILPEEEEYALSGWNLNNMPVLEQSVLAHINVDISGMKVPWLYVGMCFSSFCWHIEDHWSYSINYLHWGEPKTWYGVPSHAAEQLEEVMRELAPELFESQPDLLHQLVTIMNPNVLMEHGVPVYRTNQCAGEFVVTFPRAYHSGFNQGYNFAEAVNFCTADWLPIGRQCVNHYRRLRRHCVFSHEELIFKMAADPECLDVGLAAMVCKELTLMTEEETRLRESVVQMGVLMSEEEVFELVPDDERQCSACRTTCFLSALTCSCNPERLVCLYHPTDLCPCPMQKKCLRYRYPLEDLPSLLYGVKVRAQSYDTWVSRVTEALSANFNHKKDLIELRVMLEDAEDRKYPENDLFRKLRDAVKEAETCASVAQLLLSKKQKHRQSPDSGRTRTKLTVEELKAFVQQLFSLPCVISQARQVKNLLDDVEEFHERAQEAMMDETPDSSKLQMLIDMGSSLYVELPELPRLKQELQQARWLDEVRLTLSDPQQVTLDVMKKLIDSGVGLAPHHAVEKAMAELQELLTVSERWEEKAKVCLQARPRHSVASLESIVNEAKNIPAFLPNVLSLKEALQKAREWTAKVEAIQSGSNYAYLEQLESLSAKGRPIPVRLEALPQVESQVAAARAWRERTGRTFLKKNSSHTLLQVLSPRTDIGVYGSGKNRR
# Assay: Jarid1A in vitro enzyme inhibition assay (TR-FRET)
# Assay type: biochemical
# Settings: not given
# Procedure: as §1
# The enzymatic assay of Jarid1A activity is based upon Time Resolved-Fluorescence Resonance Energy Transfer (TR-FRET) detection.
# The assay reaction was initiated by the following: 2 μl of the mixture of 900 nM H3K4me3-biotin labeled peptide and 6 μM alpha-ketoglutaric acid with 2 μl of 11-point serial diluted inhibitor in 3% DMSO was added to each well of plate, followed by the addition of 2 μl of 3 nM Jarid1A to initiate the reaction. The reaction mixture was incubated at room temp for 30 min, and terminated by the addition of 6 μl of 5 mM EDTA in LANCE detection buffer containing 50 nM Phycolink Streptavidin-allophycocyanin and 2 nM Europium-anti-H3K4me1-2 antibody.
row,Compound,IC50
1,"(±)-methyl 2-(1-hydroxy-2-methylpropyl)-1H-pyrrolo[3,2-b]-pyridine-7-carboxylate [Example 30]",100 to 1000 nM

# System: KYSE-150 cell line
# Assay: In vitro cell-based assay, KYSE-150 cell line: BrdU cell proliferation ELISA
# Settings: Homo sapiens; KYSE-150 cells, 168 hr, BrdU incorporation
# Procedure: The primary cellular assay for JMJD2C inhibition is an assay which measures cellular proliferation via Bromodeoxyuridine (BrdU) incorporation after 168 hr of compound incubation. This assay is a quantitative ELISA assay measuring DNA incorporation of BrdU during S-phase as a direct readout of cellular proliferation. The KYSE-150 cell line is a JMJD2C gene amplified cell line.
# This is a colorimetric immunoassay for the quantification of cell proliferation. Cells treated for 168 hr with test compounds are assayed for their ability to go through S-phase as a measure of their proliferative potential.
# The human KYSE-150 (SMAD4 mut, TP53 mut) esophageal carcinoma cell line was seeded at 2,000 cells/well on a 96-well tissue culture treated plate. After an overnight incubation, cells were treated with a test compound in an 11 point dilution series with final concentrations ranging from 100 μM to 2 nM. Cells were then incubated in the presence of compound for 168 hr. After compound incubation, the cells were assayed using a BrdU Cell Proliferation ELISA (Roche). The cells were first incubated with BrdU labeling reagent for 2 hr. After 2 hr, these BrdU incorporated cells were fixed and denatured, probed with an anti-BrdU-Peroxidase antibody for 1.5 hr and washed. Finally, a tetramethylbenzidine peroxidase substrate was added to each well for 15 min followed by H2SO4 stop solution. The plate is read at 450 nm, and the raw optical density data is transferred into XLFit (IDBS) for IC50 calculation using the formula: fit=(D+((Vmax*(x^n))/((x^n)+(Km^n))))
row,Compound,IC50
1,"COC(=O)c1ccnc2cc(Cc3ccc(F)c(F)c3)[nH]c12 [Example 125, methyl 2-(3,4-difluorobenzyl)-1H-pyrrolo[3,2-b]pyridine-7-carboxylate]",1000 to 10000 nM
2,"COC(=O)c1ccnc2cc(Cc3ccc(Cl)c(OC)c3)[nH]c12 [Example 127, methyl 2-(4-chloro-3-methoxybenzyl)-1H-pyrrolo-[3,2-b]-pyridine-7-carboxylate]",< 100 nM
3,"COC(=O)c1ccnc2cc(Cc3ccc(Cl)c(Cl)c3)[nH]c12 [Example 129, methyl 2-(3,4-dichlorobenzyl)-1H-pyrrolo[3,2-b]pyridine-7-carboxylate]",< 100 nM
4,"COC(=O)c1ccnc2cc(Cc3cc(F)c(Cl)c(Cl)c3)[nH]c12 [Example 131, methyl 2-(3,4-dichloro-5-fluorobenzyl)-1H-pyrrolo-[3,2-b]pyridine-7-carboxylate]",< 100 nM
5,"COC(=O)c1ccnc2cc(Cc3ccc(Cl)c(C)c3)[nH]c12 [Example 133, methyl-2-(4-chloro-3-methylbenzyl)-1H-pyrrolo-[3,2-b]pyridine-7-carboxylate]",100 to 1000 nM
6,"COC(=O)c1ccnc2cc(Cc3ccc(Cl)c(C(F)(F)F)c3)[nH]c12 [Example 135, methyl 2-[4-chloro-3-(trifluoromethyl)benzyl]-1H-pyrrolo[3,2-b]pyridine-7-carboxylate]",< 100 nM
7,"COC(=O)c1ccnc2cc(Cc3ccc(Cl)c(OCC4CC4)c3)[nH]c12 [Example 137, methyl 2-[4-chloro-3-(cyclo-propylmethoxy)benzyl]-1H-pyrrolo[3,2-b]pyridine-7-carboxylate]",< 100 nM
8,"COC(=O)c1ccnc2cc(Cc3ccc(Cl)c(OCC(F)(F)F)c3)[nH]c12 [Example 139, methyl-2-[4-chloro-3-(2,2,2-trifluoroethoxy)benzyl]-1H-pyrrolo[3,2-b]pyridine-7-carboxylate]",< 100 nM
9,"COC(=O)c1ccnc2cc(Cc3ccc(Cl)c(OC(F)(F)F)c3)[nH]c12 [Example 141, methyl-2-[4-chloro-3-(trifluoromethoxy)benzyl]-1H-pyrrolo[3,2-b]pyridine-7-carboxylate]",< 100 nM
10,"CNC(=O)c1ccnc2cc(Cc3ccc(Cl)cc3)[nH]c12 [Example 143, 2-[4-chloro-benzyl]-N-methyl-1H-pyrrolo[3,2-b]pyridine-7-carboxamide]",100 to 1000 nM
11,"CNC(=O)c1ccnc2cc(Cc3ccc(Cl)c(OC(F)(F)F)c3)[nH]c12 [Example 144, 2-[4-chloro-3-(trifluoro-methoxy)benzyl]-N-methyl-1H-pyrrolo-[3,2-b]pyridine-7-carboxamide]",< 100 nM

# Target: Jarid1B (Homo sapiens (Human), UniProt Q9UGL1)
# Sequence (Q9UGL1 2-751): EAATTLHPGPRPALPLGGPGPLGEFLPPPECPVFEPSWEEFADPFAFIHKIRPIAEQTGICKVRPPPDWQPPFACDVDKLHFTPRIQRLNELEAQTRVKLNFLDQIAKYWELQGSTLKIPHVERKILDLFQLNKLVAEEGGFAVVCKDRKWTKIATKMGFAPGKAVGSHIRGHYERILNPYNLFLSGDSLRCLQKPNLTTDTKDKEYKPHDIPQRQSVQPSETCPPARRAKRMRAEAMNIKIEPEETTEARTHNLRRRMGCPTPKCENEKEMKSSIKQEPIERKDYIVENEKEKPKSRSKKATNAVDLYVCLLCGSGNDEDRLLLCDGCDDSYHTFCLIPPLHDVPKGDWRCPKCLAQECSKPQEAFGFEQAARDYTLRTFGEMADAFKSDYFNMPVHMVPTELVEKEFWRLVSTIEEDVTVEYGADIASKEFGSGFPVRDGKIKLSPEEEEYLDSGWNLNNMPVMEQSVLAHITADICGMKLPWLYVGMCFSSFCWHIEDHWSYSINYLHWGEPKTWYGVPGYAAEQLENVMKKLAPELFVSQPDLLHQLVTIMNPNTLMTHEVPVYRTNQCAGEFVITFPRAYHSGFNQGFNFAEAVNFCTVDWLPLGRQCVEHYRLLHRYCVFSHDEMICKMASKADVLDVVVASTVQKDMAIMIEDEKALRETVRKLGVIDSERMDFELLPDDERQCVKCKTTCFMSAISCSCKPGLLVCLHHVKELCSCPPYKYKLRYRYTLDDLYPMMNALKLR
# Assay: Jarid1B in vitro enzyme inhibition assay (TR-FRET)
# Assay type: biochemical
# Settings: not given
# Procedure: as §1
# The reaction mixture was incubated at room temp for 30 min, and terminated by the addition of 6 μl of 5 mM EDTA in LANCE detection buffer containing 50 nM Phycolink Streptavidin-allophycocyanin and 2 nM Europium-anti-H3K4me1-2 antibody.
row,Compound,IC50
1,"(±)-methyl 2-(1-hydroxy-2-methylpropyl)-1H-pyrrolo[3,2-b]-pyridine-7-carboxylate [Example 30]",< 100 nM
